# In PubChem BioAssay (NCI):
# Values joined by “and” are separate entries in the source; they are usually repeats but may differ in a detail not shown here. Equal entries are not always repeated.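 Cultured in 96-well plates, cells were exposed to test compound for 48 hours across five concentrations. GI50 = concentration required for 50% inhibition of growth. TGI: total growth inhibition.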
# Assays:
# Test in all cases: NCI tumour cell line growth inhibition, 48 h
# A498 renal = tested on: A498 renal
# HT29 colon = tested on: HT29 colon
# LOX IMVI melanoma = tested on: LOX IMVI melanoma
# OVCAR-5 ovarian = tested on: OVCAR-5 ovarian
# OVCAR-8 ovarian = tested on: OVCAR-8 ovarian
# RPMI-8226 leukemia = tested on: RPMI-8226 leukemia
# SK-OV-3 ovarian = tested on: SK-OV-3 ovarian
# SNB-19 CNS = tested on: SNB-19 CNS
# SNB-75 CNS = tested on: SNB-75 CNS
# TK-10 renal = tested on: TK-10 renal
SMILES,GI50 (A498 renal),TGI (A498 renal),GI50 (HT29 colon),TGI (HT29 colon),GI50 (LOX IMVI melanoma),TGI (LOX IMVI melanoma),GI50 (OVCAR-5 ovarian),TGI (OVCAR-5 ovarian),GI50 (OVCAR-8 ovarian),TGI (OVCAR-8 ovarian),GI50 (RPMI-8226 leukemia),TGI (RPMI-8226 leukemia),GI50 (SK-OV-3 ovarian),TGI (SK-OV-3 ovarian),GI50 (SNB-19 CNS),TGI (SNB-19 CNS),GI50 (SNB-75 CNS),TGI (SNB-75 CNS),GI50 (TK-10 renal),TGI (TK-10 renal)
CCc1ccc(Oc2c(-c3ccc(OCc4ccc(Cl)cc4)cc3O)nn(C)c2C(F)(F)F)cc1,1.28 µM,2.93 µM,0.58 µM,2.11 µM,0.416 µM,1.51 µM,1.75 µM,3.85 µM,1.35 µM,3.79 µM,0.505 µM,3.6 µM,1.63 µM,4.98 µM,0.591 µM,2.14 µM,1.34 µM,4.49 µM,1.23 µM,3.18 µM
COc1cc2c(c3c1c(=O)c1ccccc1n3C)C=C([N+](=O)[O-])C(C)(C)O2,–,12.5 µM,–,> 100 µM,–,> 100 µM,–,> 100 µM,–,> 100 µM,–,> 31.6 µM,–,> 100 µM,–,> 100 µM,–,> 100 µM,–,> 100 µM
Nc1ncnc2c1c(-c1ccc(Oc3ccccc3)cc1)nn2CC1SSCC1O (centres undefined),5.1 µM,11.6 µM,1.27 µM,6.36 µM,0.335 µM,4.96 µM,7.2 µM,28.8 µM,7.51 µM,23.3 µM,5.05 µM,21.3 µM,1.35 µM,7.05 µM,5.51 µM,13 µM,5.79 µM,14.9 µM,1.91 µM,6.34 µM
CC[n+]1c(-c2ccccc2)c2cc(N)ccc2c2ccc(N)cc21,5.18 µM and 4.76 µM and 14.7 µM,40.8 µM and 52.5 µM and 66.2 µM,1.64 µM,9.45 µM and 29 µM,2.31 µM and 3.12 µM and 7.53 µM,13.7 µM and 21.2 µM and 34.7 µM,5.67 µM,57.6 µM and > 100 µM,0.695 µM and 1.37 µM and 2.94 µM,12.2 µM and 16.2 µM and 33.2 µM,2.23 µM and 1.02 µM and 2.64 µM,> 100 µM and 10.4 µM and 24.3 µM,2.19 µM,23.5 µM and 25.6 µM,0.368 µM and 0.502 µM and 1.43 µM,–,1.29 µM,3.16 µM and 1.14 µM,2.38 µM,19.7 µM and 68.8 µM
COC(=O)[C@]12CC[C@@H](C)[C@H](C)[C@@H]1C1=CC[C@@H]3[C@@]4(C)C(C=O)=C[C@@](C)(COS(C)(=O)=O)C4=CC[C@@]3(C)[C@]1(C)CC2,0.193 µM,1.13 µM,0.144 µM,0.37 µM,0.169 µM,0.316 µM,0.215 µM,0.57 µM,0.332 µM,1.62 µM,0.263 µM,1.1 µM,0.667 µM,2.92 µM,0.48 µM,1.96 µM,0.161 µM,0.61 µM,0.211 µM,0.512 µM
O=c1[nH]c(=S)[nH]c(O)c1/C=C1\C=Nc2ccccc21,12.3 µM,28.4 µM,3.37 µM,10.6 µM,2.46 µM,11.1 µM,25.7 µM,> 100 µM,3.47 µM,> 100 µM,2.34 µM,6.49 µM,15.7 µM,81.5 µM,4.53 µM,59.3 µM,1.73 µM,5 µM,25.1 µM,> 100 µM
Cc1ccc2ccc3c4ccccc4ccc3c2c1,23.1 µM,63.6 µM,22.9 µM,77.7 µM,19.8 µM,44.3 µM,28.8 µM,95.6 µM,32.9 µM,> 100 µM,21 µM,59.2 µM,39.5 µM,> 100 µM,26.7 µM,> 100 µM,39.3 µM,> 100 µM,28.5 µM,67.8 µM
O=[N+]([O-])c1cccnc1S(=O)(=O)c1ccccc1,–,36.6 µM,–,14.3 µM,–,15.7 µM,–,29.4 µM,–,26.8 µM,–,36.4 µM,–,44.7 µM,–,34.1 µM,–,35.9 µM,–,22.2 µM
[O-][n+]1c2cccc(O)c2[n+]([O-])c2cccc(O)c21,–,> 100 µM,–,> 100 µM,–,> 100 µM,–,> 100 µM,–,> 100 µM,–,83.3 µM,–,> 100 µM,–,> 100 µM,–,> 100 µM,–,> 100 µM
CN(C)CCCOc1ccc(NC2=C(Cl)C(=O)C(Nc3ccc(OCCCN(C)C)cc3)=C(Cl)C2=O)cc1,1.66 µM,3.32 µM,0.237 µM,0.657 µM,0.422 µM,0.902 µM,1.69 µM,3.18 µM,0.446 µM,1.04 µM,2.01 µM,5.22 µM,1.82 µM,3.34 µM,1.73 µM,3.39 µM,1.78 µM,3.4 µM,1.99 µM,3.41 µM
COC(=O)C1CCC(C)CC1=O (centres undefined),–,> 100 µM,–,> 100 µM,–,> 100 µM,–,> 100 µM,–,> 100 µM,–,> 100 µM,–,> 100 µM,–,> 100 µM,–,> 100 µM,–,> 100 µM
C[n+]1cn(CC(=O)c2ccccc2)c(C(N)=O)c1N,–,> 100 µM,–,> 100 µM,–,> 100 µM,–,> 100 µM,–,> 100 µM,–,> 100 µM,–,> 100 µM,–,> 100 µM,–,> 100 µM,–,> 100 µM
OCc1ccc(-c2ccc(-c3ccc(CO)o3)o2)o1,0.18 µM,0.39 µM,> 85.9 µM,> 100 µM,> 100 µM,> 100 µM,0.641 µM,3 µM,> 100 µM,> 100 µM,> 100 µM,> 100 µM,> 83.3 µM,> 100 µM,> 90.8 µM,> 100 µM,23.2 µM,79.7 µM,2.63 µM,19.8 µM
C/C(=N\NC(=S)N1CCC1)c1ccccn1,–,10.6 µM,0.00471 µM,34.5 µM,0.00525 µM,15.9 µM,0.00689 µM,49.9 µM,0.00715 µM,12 µM,0.00499 µM,> 63.5 µM,–,5.7 µM,–,> 100 µM,–,> 29.9 µM,0.00375 µM,> 79.3 µM
CCCCCCCCCCCCCC(=O)O[C@H]1CC[C@H](NC(=O)[C@H](OC)[C@H](O)[C@@H](O)[C@H](O)/C=C/C(C)C)C(=O)N(C)C1,0.453 µM,> 23.8 µM,0.00238 µM,15 µM and 3.07 µM,–,15 µM and 3.34 µM,> 23.8 µM,15 µM and > 23.8 µM,0.00238 µM,15 µM and 3.59 µM,0.00392 µM,15 µM and 8.02 µM,0.0194 µM,15 µM and > 23.8 µM,0.0093 µM,15 µM and > 23.8 µM,0.0217 µM,15 µM and > 23.8 µM,0.05 µM,15 µM and > 23.8 µM
O=C1c2cccc3c(N4CCOCC4)ccc(c23)C(=O)N1CCN1CCN(CCCCCN2CCN(CCN3C(=O)c4cccc5c(N6CCOCC6)ccc(c45)C3=O)CC2)CC1,> 100 µM,> 100 µM,58 µM,> 100 µM,> 100 µM,> 100 µM,> 100 µM,> 100 µM,91 µM,> 100 µM,23.2 µM,> 100 µM,> 100 µM,> 100 µM,> 100 µM,> 100 µM,> 100 µM,> 100 µM,> 100 µM,> 100 µM
CC(C)N(C(=O)C12C3C4C1C1C4(C#N)C3C12C(=O)O)C(C)C (centres undefined),–,> 100 µM,–,> 100 µM,–,> 100 µM,–,> 100 µM,–,> 100 µM,–,> 66.7 µM,–,> 100 µM,–,> 100 µM,–,> 100 µM,–,> 100 µM
Cc1ccc(C(=O)Nc2ccc(Oc3cc4cnn(C)c4cc3-c3cn[nH]c3)c(F)c2)c(=O)n1-c1ccc(F)cc1,0.404 µM,> 100 µM,3.54 µM,> 100 µM,2.46 µM,> 100 µM,10.9 µM,> 100 µM,48.8 µM,> 100 µM,> 48 µM,> 100 µM,> 100 µM,> 100 µM,> 100 µM,> 100 µM,5.61 µM,> 100 µM,1.95 µM,35.1 µM
CCOC(=O)[C@@H](C)C[C@H](Cc1ccccc1)NC(=O)c1csc([C@@H](C[C@H](C(C)C)N(C)C(=O)CNC(=O)[C@H]2CCCCN2C)OC(C)=O)n1,0.464 µM,1.38 µM,0.467 µM,> 14.3 µM,2.14 µM,> 14.3 µM,3.58 µM,> 14.3 µM,2.84 µM,> 14.3 µM,0.496 µM,> 14.3 µM,0.835 µM,> 14.3 µM,0.758 µM,> 14.3 µM,0.534 µM,> 14.3 µM,> 7.9 µM,> 14.3 µM
O=C1C2C(C(=O)N1Cc1ccccc1)N(Cc1ccccc1)C(=O)N2Cc1ccccc1 (centres undefined),–,> 100 µM,–,> 100 µM,–,> 100 µM,–,> 100 µM,–,> 100 µM,–,> 100 µM,–,> 100 µM,–,> 100 µM,–,> 100 µM,–,> 100 µM
O=C1OC(=O)c2c1nc1ccccc1c2-c1ccccc1,–,> 100 µM,–,> 100 µM,–,> 100 µM,–,> 100 µM,–,> 100 µM,–,> 100 µM,–,> 100 µM,–,> 100 µM,–,> 100 µM,–,> 100 µM
COC(=O)c1ccc(NC(N)=NCCC(C)(C)c2ccc(C(F)(F)F)cc2)nc1,2.64 µM,14.7 µM,2.55 µM,6.83 µM,1.57 µM,2.98 µM,2.98 µM,13.5 µM,2.04 µM,4.63 µM,1.65 µM,4.26 µM,6.63 µM,19.2 µM,3.3 µM,11.5 µM,5.51 µM,19.8 µM,4.75 µM,17.6 µM
